Source: article PMC7504751, “Potential of 2-Chloro-N-(4-fluoro-3-nitrophenyl)acetamide Against Klebsiella pneumoniae and In Vitro Toxicity Analysis” (Molecules, 2020)
Values after ≈ are worked out from the molar mass of the structure shown. “Also recorded” adds a separate entry of the source. Where two headings read alike, the source gives them in different places.

Legend:
[1] = tested on: Candida albicans; parameters: method as in doi:10.4067/S0717-97072003000400005; conditions: cited from earlier work
[2] = tested on: oral mucosa cells; experiment: Genotoxic effects on oral mucosa cells; type: cell-based, human; conditions: positive control, hydrogen peroxide 0.0005%
Description: The tests were performed according to the recommendations established by the Code of Ethics of the World Medical Association, after approval by the ethics committee of the Centro Universitário de Patos (number: 3621284). Blood samples (types A, B, and O) and smears of oral mucosa were donated by young, healthy adults. First, the oral mucosa cells were collected from the donors, which was done with a cyto-brush (smear collector) in the cheek area, and the material obtained was placed in 5 mL of 0.9% NaCl. As controls, cells treated with hydrogen peroxide −0.0005% (positive control) and untreated cells (negative control) were used. The cells were washed twice with saline and centrifuged for 10 min at 400× g and kept in saline. After the third wash, the cells were exposed (ex vivo) to A2 substance at 50, 100, 500, and 1000 µg/mL concentrations for 30 min. The material was centrifuged and the supernatant was discarded before smear preparation. The cells were homogenized in a vortex and placed on the slides at room temperature for drying for 15 min. Then, they were fixed with methanol: acetic acid (3:1) for 15 min and stained with 2% Giemsa.

[3] = tested on: K. pneumoniae strains; experiment: Minimum inhibitory concentration (MIC), broth microdilution; type: cell-based, Klebsiella pneumoniae
Description: The clinical isolates strains of K. pneumoniae were used in this study belong to the MICOTECA of the Antibacterial and Antifungal Activity Research Laboratory of the Federal University of Paraíba, Brazil, which are: KP-25, KP-26, KP-56, KP-83, KP-87, KP-138, KP-143, KP-166, KP-173, KP-176, KP-260, and KP-326. The American Type Culture Collection strain ATCC-700603 was used as controls. For use in the assays, bacterial suspensions were prepared in 0.9% saline solution, from fresh cultures, and adjusted to the McFarland standard 0.5 scale.
To assess the antibacterial activity of substances A1 and A2, the minimum inhibitory concentration against K. pneumoniae strains was determined. The substances were solubilized in dimethyl sulfoxide (DMSO) at 5% and Tween-80 at 2%, to obtain emulsions in the concentrations necessary for use in the tests. The MIC determination was performed using the broth microdilution technique in a 96-well plate to obtain different concentrations of A1 and A2 [35]. In parallel, controls for sterility, cell viability, and interference of the vehicles used in the preparation of substance emulsions (DMSO and Tween-80) were also performed. MIC is defined as the lowest concentration capable of causing complete inhibition of bacterial growth after 24 h at 35 ± 2 °C.

## CC(=O)Nc1ccccc1O [N-(2-hydroxyphenyl) acetamide]
[1]
  antimicrobial activity against Candida albicans: did not have the ability to inhibit fungal growth; also recorded: absence of activity

## OO [PC-H2O2, hydrogen peroxide, reference compound]
[2]
  Binucleation: 1.00%
  Karyolysis: 7.00%
  Karyorrhexis: 10.75%
  Micronucleus: 6.50%
  Normal: 77.75%

## CC(=O)Nc1ccc(F)c([N+](=O)[O-])c1 [A1, N-(4-fluoro-3-nitrophenyl)acetamide]
other
  melting point: 142 to 144 °C
[3]; Klebsiella pneumoniae, ATCC700603, strain ATCC-700603, 24 h at 35 ± 2 °C, read-out: MIC
  MIC: 1020 µg/mL (≈ 5.17 mM)
[3]; Klebsiella pneumoniae, 100% of the K. pneumoniae strains used in this study, read-out: MIC
  MIC: 1020 µg/mL (≈ 5.17 mM)
[3]; Klebsiella pneumoniae, strain KP-138, 24 h at 35 ± 2 °C, read-out: MIC
  MIC: 1020 µg/mL (≈ 5.17 mM)
[3]; strain KP-25, 24 h at 35 ± 2 °C
  MIC: 1024 µg/mL (≈ 5.17 mM)
[3]; strain KP-26, 24 h at 35 ± 2 °C
  MIC: 1024 µg/mL (≈ 5.17 mM)
[3]; strain KP-56, 24 h at 35 ± 2 °C
  MIC: 1024 µg/mL (≈ 5.17 mM)
[3]; strain KP-83, 24 h at 35 ± 2 °C
  MIC: 1024 µg/mL (≈ 5.17 mM)
[3]; strain KP-87, 24 h at 35 ± 2 °C
  MIC: 1024 µg/mL (≈ 5.17 mM)
[3]; strain KP-143, 24 h at 35 ± 2 °C
  MIC: 1024 µg/mL (≈ 5.17 mM)
[3]; strain KP-166, 24 h at 35 ± 2 °C
  MIC: 1024 µg/mL (≈ 5.17 mM)
[3]; strain KP-173, 24 h at 35 ± 2 °C
  MIC: 1024 µg/mL (≈ 5.17 mM)
[3]; strain KP-176, 24 h at 35 ± 2 °C
  MIC: 1024 µg/mL (≈ 5.17 mM)
[3]; strain KP-260, 24 h at 35 ± 2 °C
  MIC: 1024 µg/mL (≈ 5.17 mM)
[3]; strain KP-326, 24 h at 35 ± 2 °C
  MIC: 1024 µg/mL (≈ 5.17 mM)

## O=C(CCl)Nc1ccccc1O [2-chloro-N-(2-hydroxyphenyl) acetamide]
[1]
  C. albicans strains inhibited: 96.6%
